The source of these data is PMC9370150, “UHPLC Enantiomer Resolution for the ɑ/β-Adrenoceptor Antagonist R/S-Carvedilol and Its Major Active Metabolites on Chiralpak IB N-5” (Molecules, 2022).

A short description of data set [1]: Enantiomer plasma concentrations in cardiovascular patients after oral 25 mg rac-CAR (UHPLC-UV on Chiralpak IB N-5). Conditions: for concentration at 1 h / concentration at 2 h / concentration at 4 h / concentration at 9 h / concentration at 12 h / concentration at 0.5 h: human, plasma, po, 25 mg.
Experimental: The developed method was applied to single plasma samples obtained from different patients after an oral dose administration of 25 mg rac-CAR under non-standardized conditions. Patients’ plasma was collected at different time intervals after drug administration and CAR and its metabolites were extracted according to the method in Section 4.7 after spiking with IS.
Blood samples obtained from patients were also collected in EDTA-containing tubes. Blood was kept cool and then centrifuged at 2000 g for 15 min. Following plasma separation, it was immediately transferred into clean polypropylene tubes. The samples were always kept at 2–8 °C while handling.
After collection, plasma was obtained and the samples stored frozen until analysis.
Another data set concerns β-adrenoreceptor. The conditions noted are these: cited from earlier work.
Another data set deals with α1-adrenoreceptor. The conditions noted are these: cited from earlier work.
On the set-up of data set [2]: method as in PMID 1980583. The conditions noted are these: therapeutic dose; cited from earlier work.
[3] abbreviates: single enantiomers, read-out: Kd, β-adrenoreceptor antagonistic property.
[4] abbreviates: single enantiomers, read-out: Kd, α1-antagonistic activity.
[5] abbreviates: patient 3, sampling time 2.0 hr, oral 25 mg racemic CAR.
[6] abbreviates: patient 4, sampling time 4.0 hr, oral 25 mg racemic CAR.
Setting [7] is: patient 5, sampling time 9.0 hr, oral 25 mg racemic CAR.
Where [8] appears, read: patient 6, sampling time 12.0 hr, oral 25 mg racemic CAR.

Each structure is given as a SMILES string. Like-named read-outs stand apart in the source and are kept apart here.

In data set [1], `Oc1ccccc1OCCNC[C@H](O)COc1cccc2[nH]c3ccccc3c12` [S-DMC] registered a concentration at 1 h of 3.27 ng/mL, a concentration at 2 h of 9.92 ng/mL, a concentration at 4 h of 8.52 ng/mL and a concentration at 9 h of 5.02 ng/mL. The molecule further returned a concentration at 12 h in data set [1] of 2.73 ng/mL.
In data set [1], `COc1ccccc1OCCNC[C@@H](O)COc1cccc2[nH]c3ccccc3c12` [R-CAR] displayed a concentration at 0.5 h of 20.7 ng/mL and a concentration at 1 h of 48.4 ng/mL. For the same molecule, the “β-blocking activity relative to the racemate” value with β-adrenoreceptor (share of the racemate's activity) is on record as “approximately 1%”. For the same molecule, the Kd at β-adrenoreceptor (setting [3]) is around 45 nM. The Kd at α1-adrenoreceptor (setting [4]) was 16 nM.
In data set [1], `COc1ccccc1OCCNC[C@H](O)COc1cccc2[nH]c3ccccc3c12` [S-CAR, (-)-1-(9H-carbazol-4-yloxy)-3-[2-(2-methoxyphenoxy)ethylamino] propan-2-ol] gave a concentration at 0.5 h of 20.3 ng/mL. For the same molecule, the concentration at 1 h in data set [1] stood at 50 ng/mL. The “β-adrenoreceptor potency relative to the racemic mixture” value in the data set with β-adrenoreceptor (fold more potent than racemate) is on record as “approximately two-fold”. Besides, the Kd on β-adrenoreceptor (setting [3]) is 0.4 nM; on α1-adrenoreceptor (setting [4]), 14 nM.
`Oc1ccccc1OCCNC[C@@H](O)COc1cccc2[nH]c3ccccc3c12` [R-DMC]: the “Plasma Concentration” value in data set [1] (patient 2, sampling time 1.0 hr, oral 25 mg racemic CAR) is reported as 2.40 ng/mL; in data set [1] (setting [5]), 6.06 ng/mL; in data set [1] (setting [6]), 4.93 ng/mL; in data set [1] (setting [7]) it was 2.82 ng/mL; in data set [1] (setting [8]) it was 1.52 ng/mL.
On to `COc1ccccc1OCCNCC(O)COc1cccc2[nH]c3ccccc3c12` (centres unmarked) [CAR, Carvedilol], for which, in data set [1] (analyzed patient samples after 25 mg CAR racemate), the “plasma S/R ratios of CAR enantiomers” value is reported as around 1. Besides, in data set [1], the concentration at 0.5 h turned out to be 41 ng/mL and the concentration at 1 h was 98.4 ng/mL. Also, the “Plasma concentration S/R” value in data set [1] (patient 1, sampling time 0.5 hr, oral 25 mg racemic CAR) is reported as 0.98. Moreover, in data set [1] (patients investigated, 25 mg CAR racemate), the “sum of the two enantiomers in plasma” value is recorded as at most 100 ng/mL. Further, the β-adrenoceptor-antagonism eudismic ratio entry in the data set with β-adrenoreceptor (parent CAR) is given as “approximately 100”. The Kd at β-adrenoreceptor (racemate, read-out: Kd, nonselective β-adrenoreceptor antagonist) is 11 nM. For the same molecule, in data set [2], the “excreted unchanged into urine” value was 2% and the “fraction of dose metabolized” value was around 98%. Moreover, the α1-adrenoceptor-antagonism eudismic ratio result with α1-adrenoreceptor (parent CAR) is “approximately 1”. Also, the Kd on α1-adrenoreceptor (racemate, read-out: apparent dissociation constant (Kd), α1-adrenoreceptor antagonist) was 0.9 nM.
In data set [1], `COc1cc(O)ccc1OCCNC[C@H](O)COc1cccc2[nH]c3ccccc3c12` [S-4′OHC] gave a concentration at 2 h of 13.7 ng/mL, a concentration at 4 h of 16.1 ng/mL, a concentration at 9 h of 8.18 ng/mL and a concentration at 12 h of 5.29 ng/mL.
In the case of `COc1ccc(O)cc1OCCNC[C@H](O)COc1cccc2[nH]c3ccccc3c12` [S-5′OHC], in data set [1], the concentration at 2 h stood at 11.5 ng/mL, the concentration at 4 h turned out to be 14.1 ng/mL, the concentration at 9 h is 8.09 ng/mL and the concentration at 12 h turned out to be 5.28 ng/mL.
Regarding `COc1ccc(O)cc1OCCNC[C@@H](O)COc1cccc2[nH]c3ccccc3c12` [R-5′OHC], the “Plasma Concentration” value in data set [1] (setting [5]) is recorded as 8.20 ng/mL; in data set [1] (setting [6]), 9.47 ng/mL; in data set [1] (setting [7]), 6.09 ng/mL; in data set [1] (setting [8]), 3.78 ng/mL.
Take `COc1cc(O)ccc1OCCNC[C@@H](O)COc1cccc2[nH]c3ccccc3c12` [R-4′OHC]: the “Plasma Concentration” value in data set [1] (setting [5]) is listed as 4.51 ng/mL; in data set [1] (setting [6]), 4.98 ng/mL; in data set [1] (setting [7]), 3.54 ng/mL; in data set [1] (setting [8]) it was 1.96 ng/mL.
